Non-standard residues stand in square brackets, D forms with d. Residues, ends and D or L forms follow the SMILES beside them. *: point of attachment. X1 = COc1ccc(C[C@@H](CN[C@@H](CCCNC(=N)N)C(=O)O)N*)cc1; Hyp = O=C(O)[C@@H]1C[C@@H](O)CN1; 2Thi = N[C@@H](Cc1cccs1)C(=O)O
Legend:
human B2R [1] = target: T1, human B2R (Homo sapiens, UniProt P30411); experiment: Radioligand displacement binding assay, [3H]BK, human B2R-HEK293 cells; conditions: displacement of 1 nM [3H]BK, living adherent HEK293 cells stably expressing human B2R, serum-free DMEM, 1.5 h, 4 °C; mean of two independent experiments performed in duplicates
T1 construct: expressed in transfected cells; host or cells: QBI HEK 293A cells, lentiviral transduction with pCDH-BDKRB2, puromycin selection
T1 sequence (P30411 1-391): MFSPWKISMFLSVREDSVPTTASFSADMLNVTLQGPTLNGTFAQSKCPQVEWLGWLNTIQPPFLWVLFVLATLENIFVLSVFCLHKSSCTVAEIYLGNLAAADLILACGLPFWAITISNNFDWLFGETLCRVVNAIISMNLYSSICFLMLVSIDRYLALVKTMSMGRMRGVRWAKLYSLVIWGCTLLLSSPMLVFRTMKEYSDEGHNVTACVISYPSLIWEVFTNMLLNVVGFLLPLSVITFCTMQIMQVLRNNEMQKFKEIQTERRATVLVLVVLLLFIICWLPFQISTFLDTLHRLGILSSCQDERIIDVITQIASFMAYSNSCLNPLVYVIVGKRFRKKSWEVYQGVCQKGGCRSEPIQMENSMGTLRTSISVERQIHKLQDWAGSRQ
Protocol: The pCDH-BDKRB2 vector was produced from the plasmid pcDNA3.1/human BDKRB2 by PCR amplification using the primers 5′-[…]-3′ and 5′-[…]-3′, and introduced into pCDH-CMV-MCS-EF1 vector using BamHI et XbaI restriction sites. Lentiviruses were produced from pCDH-BDKRB2 vector in HEK293T cells using the X-tremeGENE HP transfection reagent (Millipore-Sigma, Oakville, ON, Canada). Lentiviruses were harvested 48 h post-transfection and used to infect QBI HEK 293A cells (ATCC). Transduced cells were selected using 5 µg/mL of puromycin (Thermo Fisher, Burlington, On, Canada).
Radioligand displacement binding assays were performed as we previously described, with slight modifications. HEK293 cells stably expressing human B2R were used for these assays (see text above). […] Radioactivity of samples was measured by a β-scintillation counter (PerkinElmer, Woodbridge, On, Canada). Binding affinities of peptides were expressed in terms of IC50 values—the molar concentration of an unlabeled agonist causing 50% displacement of specific binding (GraphPad Prism 8.2).

human B2R [2] = target: T1, human B2R; experiment: IP-One accumulation assay, human B2R-HEK293 cells; assay type: cell-based; conditions: IP1 accumulation, 30 min, room temperature, pH 7.4, 50 mM LiCl, human B2R-HEK293, 15,000 cells per well; mean of two independent experiments performed in duplicates; read-out: IP1 Assays (EC50; nM)
Protocol: The IP-One assay was performed on living, adherent human B2R-HEK293 cells according to the manufacturer’s recommendations (Cisbio, #62IPAPEB, Bedford, MA, USA). […] IP1-d2 and anti-IP1-Cryptate were added for at least 1 h. Fluorescence signal was measured using a Tecan M1000 plate reader (excitation at 320 nm and emission at 620 and 665 nm). EC50 values were calculated by curve-fitting using GraphPad Prism 8.2.

[3] = test system: BBB, normal and focal-irradiated dog brains; conditions: in vivo, iv; cited from earlier work
From the text: Radiation therapy is part of the standard treatment paradigm for CNS tumors. The short-term effects of prior radiotherapy on the BBB opening induced by Labradimil have been investigated in normal and focal-irradiated dog brains. […] In this study, we focused on late post-radiotherapy complications leading to radionecrosis (Figure 4), which c ...

[4] = test system: angiotensin-converting enzyme (ACE, alias kininase II); conditions: cited from earlier work

Q: For `COc1ccc(C[C@@H](CN[C@@H](CCCNC(=N)N)C(=O)O)NC(=O)[C@@H]2CCCN2C(=O)[C@H](CO)NC(=O)[C@H](Cc2cccs2)NC(=O)CNC(=O)[C@@H]2C[C@@H](O)CN2C(=O)[C@@H]2CCCN2C(=O)[C@@H](N)CCCNC(=N)N)cc1` [Labradimil, [Hyp^3, Thi^5, (^4Me)Tyr^8(ΨCH2NH)Arg^9]-BK] (H-RP[Hyp]G[2Thi]SP-X1), which IC50 (human B2R [1]) is on record?
A: 17 nM

Q: And the EC50 (human B2R [2])?
A: 47 nM

Q: What about the “vasogenic edema associated with focal radiation injury” value [3] of the same compound?
A: not exacerbating the vasogenic edema associated with focal radiation injury

Q: And the “protection against enzymatic degradation by ACE” value [4]?
A: fully protected against enzymatic degradation by the angiotensin-converting enzyme

Source: publication PMC7650794, “Pharmacological Modulation of Blood–Brain Barrier Permeability by Kinin Analogs in Normal and Pathologic Conditions” (Pharmaceuticals, 2020)
